Laboratory results from the supplement of paper PMC10307832.

Experiments:
Experiment in all cases: relative viability (nuclei count vs DMSO), 5 days (fraction); higher = more cells survive
Daporinad + Lapatinib = compound: O=C(/C=C/c1cccnc1)NCCCCC1CCN(C(=O)c2ccccc2)CC1 [Daporinad] + CS(=O)(=O)CCNCc1ccc(-c2ccc3ncnc(Nc4ccc(OCc5cccc(F)c5)c(Cl)c4)c3c2)o1 [Lapatinib] (partner 2 µM)
In short: (§1)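 Values are medians from duplicate plates. Each reflects relative viability, defined as the nuclei count of treated wells over that of vehicle wells. Lung cancer cell lines in 1536-well plates were pin-tool dosed one day after seeding with one drug alone or with a fixed anchor-drug dose plus five library-drug doses (not always all listed) in √10 steps, then fixed, stained and imaged at 4× after 5 days.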

Daporinad + AZD7762 = compound: O=C(/C=C/c1cccnc1)NCCCCC1CCN(C(=O)c2ccccc2)CC1 [Daporinad] + NC(=O)Nc1cc(-c2cccc(F)c2)sc1C(=O)N[C@H]1CCCNC1 [AZD7762] (partner 0.2 µM)
In short: as §1

R406 + OSI-027 = compound: COc1cc(Nc2ncc(F)c(Nc3ccc4c(n3)NC(=O)C(C)(C)O4)n2)cc(OC)c1OC [R406] + COc1cccc2cc(-c3nc([C@H]4CC[C@H](C(=O)O)CC4)n4ncnc(N)c34)[nH]c12 [OSI-027] (partner 0.5 µM)
In short: as §1

Daporinad + Luminespib = compound: O=C(/C=C/c1cccnc1)NCCCCC1CCN(C(=O)c2ccccc2)CC1 [Daporinad] + CCNC(=O)c1noc(-c2cc(C(C)C)c(O)cc2O)c1-c1ccc(CN2CCOCC2)cc1 [Luminespib] (partner 0.01 µM)
In short: as §1

Cell Line	relative viability (Daporinad + Lapatinib; first compound 0.0005 µM)	relative viability (Daporinad + Lapatinib; first compound 0.001581 µM)	relative viability (Daporinad + Lapatinib; first compound 0.005 µM)	relative viability (Daporinad + Lapatinib; first compound 0.01581 µM)	relative viability (Daporinad + AZD7762; first compound 0.0005 µM)	relative viability (Daporinad + AZD7762; first compound 0.001581 µM)	relative viability (Daporinad + AZD7762; first compound 0.005 µM)	relative viability (Daporinad + AZD7762; first compound 0.01581 µM)	relative viability (R406 + OSI-027; first compound 0.08 µM)	relative viability (R406 + OSI-027; first compound 0.253 µM)	relative viability (R406 + OSI-027; first compound 0.8 µM)	relative viability (R406 + OSI-027; first compound 2.53 µM)	relative viability (R406 + OSI-027; first compound 8 µM)	relative viability (Daporinad + Luminespib; first compound 0.0005 µM)	relative viability (Daporinad + Luminespib; first compound 0.001581 µM)	relative viability (Daporinad + Luminespib; first compound 0.005 µM)	relative viability (Daporinad + Luminespib; first compound 0.01581 µM)
NCI-H647	1.13	1.34	1.19	1.01	0.428	0.749	0.573	0.514	0.657	0.504	0.878	0.298	0.15	0.183	0.173	0.239	0.182
A-427	1.05	1.12	0.962	0.863	0.83	0.765	0.759	0.529	0.568	0.523	0.508	0.245	0.238	0.959	0.953	0.742	0.671
EMC-BAC-2	0.93	0.885	0.846	0.336	1.09	1.28	1.02	0.413	0.373	0.416	0.407	0.232	0.203	1.19	1.22	1.25	0.331
NCI-H460	0.797	1.15	1.08	1.04	0.646	0.587	0.64	0.629	0.621	0.587	1.13	0.288	0.111	0.0254	0.0436	0.0289	0.0343
LCLC-103H					0.829	0.829	0.773	0.851	0.419	0.453	0.536	0.362	0.331	0.988	0.937	1.03	1.06
HCC-827	0.454	0.19	0.212	0.191	0.219	0.23	0.263	0.287	0.771	0.778	0.826	0.611	0.507	0.639	0.747	0.704	0.732
NCI-H1355	0.956	1.09	0.995	0.873	0.768	0.799	0.869	0.675	0.474	0.404	0.456	0.163	0.189	0.79	0.793	0.752	0.81
NCI-H1734	1.05	1.08	0.986	0.65	0.546	0.521	0.51	0.328	0.604	0.684	0.647	0.381	0.374	0.233	0.187	0.185	0.228
HARA	0.758	1.05	0.745	0.547	0.232	0.522	0.299	0.16	0.621	0.668	0.591	0.22	0.198	0.761	0.621	0.837	0.175
HCC-15	0.864	0.911	0.859	0.869	1.16	1.33	1.26	1.15	0.701	0.928	0.832	0.505	0.439	0.309	0.446	0.372	0.329
LCLC-97TM1	0.813	0.795	1.2	0.797	0.209	0.274	0.238	0.195	0.461	0.586	0.618	0.221	0.215	0.714	0.86	0.768	0.774
SK-LU-1	0.889	0.907	1.09	0.969					0.312	0.337	0.424	0.153	0.0841	0.193	0.204	0.227	0.225
NCI-H1651	0.803	1.09	0.796	0.984	0.486	0.475	0.554	0.477	0.632	0.749	0.804	0.621	0.286	0.829	0.676	0.805	0.67
NCI-H1793	0.337	0.935	0.535	0.805	0.467	0.511	0.522	0.764	0.251	0.273	0.303	0.116	0.158	0.163	0.203	0.158	0.217
NCI-H2023	0.699	0.946	0.76	0.843					0.413	0.464	0.488	0.134	0.0924	0.727	0.759	0.918	0.717
LC-2-ad	0.959	1.03	0.936	0.972	0.762	0.88	0.79	0.964	0.872	0.878	0.838	0.504	0.34	0.99	1.11	1.19	0.795
NCI-H1703	1.39	1.22	0.845	0.402	0.134	0.123	0.155	0.142									
NCI-H1437	0.704	0.879	0.867	0.85	1.12	1.16	1.14	1.09	0.91	0.86	1.11	0.835	0.593	1.14	1.16	1.15	1.06
SW 1573	1.12	0.322	1.2	0.833					0.603	0.783	0.869	0.493	0.224	0.207	0.737	0.207	0.296
H3255	0.24	0.255	0.247	0.235	0.869	1.04	1.03	0.972	0.569		0.651	0.426	0.406	0.832	0.995	0.929	1.1
